Columns and labels:
[1] = target: Tyrosine-protein kinase JAK2 (Homo sapiens, UniProt O60674); experiment: Inhibition of human JAK2 kinase domain using biotin-Lyn-substrate-2 as substrate incubated for 1 hr by ELISA method
[2] = target: T1, Tyrosine-protein kinase JAK3 (Homo sapiens, UniProt P52333); experiment: Inhibition of human JAK3 kinase domain using biotin-Lyn-substrate-2 as substrate incubated for 1 hr by ELISA method
T1 sequence (P52333 whole entry): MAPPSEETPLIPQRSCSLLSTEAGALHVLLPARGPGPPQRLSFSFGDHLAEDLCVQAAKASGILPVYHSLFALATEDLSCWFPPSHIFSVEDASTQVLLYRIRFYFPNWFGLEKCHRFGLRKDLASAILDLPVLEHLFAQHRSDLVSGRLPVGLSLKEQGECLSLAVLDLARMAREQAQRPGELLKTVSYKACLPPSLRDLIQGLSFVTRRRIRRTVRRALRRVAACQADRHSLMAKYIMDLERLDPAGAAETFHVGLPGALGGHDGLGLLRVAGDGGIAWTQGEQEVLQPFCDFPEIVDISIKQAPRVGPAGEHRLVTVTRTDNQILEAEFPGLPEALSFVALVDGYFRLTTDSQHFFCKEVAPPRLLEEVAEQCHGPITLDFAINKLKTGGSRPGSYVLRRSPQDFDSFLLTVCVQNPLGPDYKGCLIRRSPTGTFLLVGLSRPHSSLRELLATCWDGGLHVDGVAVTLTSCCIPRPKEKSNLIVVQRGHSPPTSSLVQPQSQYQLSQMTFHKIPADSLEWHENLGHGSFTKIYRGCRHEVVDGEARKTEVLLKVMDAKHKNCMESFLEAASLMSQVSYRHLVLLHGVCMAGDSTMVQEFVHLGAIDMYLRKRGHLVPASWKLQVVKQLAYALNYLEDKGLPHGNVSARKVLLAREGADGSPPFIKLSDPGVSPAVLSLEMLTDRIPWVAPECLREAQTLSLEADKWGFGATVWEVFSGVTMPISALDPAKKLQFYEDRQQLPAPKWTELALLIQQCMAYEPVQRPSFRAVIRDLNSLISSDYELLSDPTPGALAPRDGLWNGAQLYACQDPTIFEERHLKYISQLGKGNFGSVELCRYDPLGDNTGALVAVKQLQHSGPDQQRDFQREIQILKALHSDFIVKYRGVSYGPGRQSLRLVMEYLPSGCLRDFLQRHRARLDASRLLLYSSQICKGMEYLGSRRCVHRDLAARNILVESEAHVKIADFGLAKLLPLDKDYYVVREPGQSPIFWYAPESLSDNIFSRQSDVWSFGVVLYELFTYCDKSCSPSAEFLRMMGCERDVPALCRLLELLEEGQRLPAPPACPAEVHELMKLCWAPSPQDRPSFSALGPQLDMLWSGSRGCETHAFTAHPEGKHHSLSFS

[3] = target: Tyrosine-protein kinase JAK1 (Homo sapiens, UniProt P23458); experiment: Inhibition of human JAK1 kinase domain using biotin-Lyn-substrate-2 as substrate incubated for 1 hr by ELISA method
Tyrosine-protein kinase JAK1, sequence (P23458 whole entry, the tested form may be a part): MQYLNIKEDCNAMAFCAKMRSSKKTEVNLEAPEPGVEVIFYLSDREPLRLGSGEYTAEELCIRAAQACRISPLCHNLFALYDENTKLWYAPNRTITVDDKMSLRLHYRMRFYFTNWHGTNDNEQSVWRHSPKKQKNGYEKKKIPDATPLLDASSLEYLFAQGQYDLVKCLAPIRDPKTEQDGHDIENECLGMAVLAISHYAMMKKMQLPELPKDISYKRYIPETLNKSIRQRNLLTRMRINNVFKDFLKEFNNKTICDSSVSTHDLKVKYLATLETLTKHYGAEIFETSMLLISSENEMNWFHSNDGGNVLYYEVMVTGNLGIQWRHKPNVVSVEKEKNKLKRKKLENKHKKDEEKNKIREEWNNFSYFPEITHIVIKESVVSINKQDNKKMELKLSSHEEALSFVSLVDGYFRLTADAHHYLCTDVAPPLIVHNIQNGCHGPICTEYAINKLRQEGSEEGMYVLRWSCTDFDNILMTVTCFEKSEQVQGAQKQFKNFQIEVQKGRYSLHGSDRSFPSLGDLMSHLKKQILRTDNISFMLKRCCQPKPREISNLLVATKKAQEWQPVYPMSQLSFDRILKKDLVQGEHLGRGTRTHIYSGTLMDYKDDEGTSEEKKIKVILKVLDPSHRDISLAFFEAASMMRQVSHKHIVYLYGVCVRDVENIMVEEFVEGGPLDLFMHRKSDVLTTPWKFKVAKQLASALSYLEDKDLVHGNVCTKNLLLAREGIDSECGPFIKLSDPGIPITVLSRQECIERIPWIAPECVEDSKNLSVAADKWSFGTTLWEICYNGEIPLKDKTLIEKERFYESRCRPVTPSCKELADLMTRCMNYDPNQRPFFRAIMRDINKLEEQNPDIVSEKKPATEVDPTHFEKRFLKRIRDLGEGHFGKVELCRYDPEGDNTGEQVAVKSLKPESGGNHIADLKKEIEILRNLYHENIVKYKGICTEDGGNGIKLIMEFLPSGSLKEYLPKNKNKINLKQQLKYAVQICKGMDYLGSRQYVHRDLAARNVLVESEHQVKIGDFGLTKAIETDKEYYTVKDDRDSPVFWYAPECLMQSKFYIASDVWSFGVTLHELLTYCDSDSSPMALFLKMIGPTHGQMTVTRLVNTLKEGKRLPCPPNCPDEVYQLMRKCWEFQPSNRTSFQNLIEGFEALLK

[4] = Effective permeability of the compound at pH 7.4 by PAMPA method; assay type: physicochemical; conditions: read-out: Peff
[5] = Inhibition of JAK1/JAK3 in Lewis rat splenocytes assessed as reduction in IL2-stimulated T-cell proliferation incubated for 3 days by alamar blue dye based fluorescence assay; conditions: 72 h
[6] = Intrinsic clearance in rat liver microsomes at 0.2 uM in presence of NADPH generating system by LC/MS/MS method; assay type: ADME; conditions: read-out: CLH
[7] = target: Voltage-gated inwardly rectifying potassium channel KCNH2 (Homo sapiens, UniProt Q12809)
Voltage-gated inwardly rectifying potassium channel KCNH2, sequence (Q12809 whole entry): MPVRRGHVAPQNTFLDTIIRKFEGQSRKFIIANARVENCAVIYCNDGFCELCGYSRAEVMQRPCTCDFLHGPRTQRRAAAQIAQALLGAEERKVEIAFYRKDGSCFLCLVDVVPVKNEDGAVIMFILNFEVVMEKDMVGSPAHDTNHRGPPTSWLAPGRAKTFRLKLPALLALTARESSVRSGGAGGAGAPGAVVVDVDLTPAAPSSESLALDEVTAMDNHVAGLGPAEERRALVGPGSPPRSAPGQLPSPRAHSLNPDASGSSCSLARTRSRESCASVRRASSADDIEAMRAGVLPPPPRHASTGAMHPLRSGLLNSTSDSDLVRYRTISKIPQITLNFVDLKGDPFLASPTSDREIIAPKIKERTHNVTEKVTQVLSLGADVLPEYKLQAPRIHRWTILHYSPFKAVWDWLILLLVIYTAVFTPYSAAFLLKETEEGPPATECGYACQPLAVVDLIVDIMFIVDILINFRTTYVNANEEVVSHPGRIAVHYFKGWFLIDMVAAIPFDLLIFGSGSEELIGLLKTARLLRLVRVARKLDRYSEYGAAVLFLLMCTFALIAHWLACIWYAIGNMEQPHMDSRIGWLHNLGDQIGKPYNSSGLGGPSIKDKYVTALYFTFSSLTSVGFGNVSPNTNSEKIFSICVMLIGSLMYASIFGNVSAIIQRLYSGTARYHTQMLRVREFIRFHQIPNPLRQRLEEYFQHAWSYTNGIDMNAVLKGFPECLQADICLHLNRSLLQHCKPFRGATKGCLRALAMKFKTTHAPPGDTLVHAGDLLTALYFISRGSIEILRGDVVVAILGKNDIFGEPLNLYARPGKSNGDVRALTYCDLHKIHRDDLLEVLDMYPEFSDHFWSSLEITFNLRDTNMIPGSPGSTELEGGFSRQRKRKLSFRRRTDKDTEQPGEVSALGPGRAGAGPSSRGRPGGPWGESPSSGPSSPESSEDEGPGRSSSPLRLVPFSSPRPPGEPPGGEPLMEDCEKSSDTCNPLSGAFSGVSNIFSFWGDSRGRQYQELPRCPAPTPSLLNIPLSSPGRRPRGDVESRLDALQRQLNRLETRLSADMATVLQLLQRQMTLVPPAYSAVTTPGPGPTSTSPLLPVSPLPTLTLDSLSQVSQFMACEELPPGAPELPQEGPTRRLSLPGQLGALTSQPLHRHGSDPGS
Description: Inhibition of human ERG expressed in CHOK1 cells incubated for 10 mins by Rb efflux assay

Tyrosine-protein kinase JAK2, sequence (O60674 whole entry, the tested form may be a part): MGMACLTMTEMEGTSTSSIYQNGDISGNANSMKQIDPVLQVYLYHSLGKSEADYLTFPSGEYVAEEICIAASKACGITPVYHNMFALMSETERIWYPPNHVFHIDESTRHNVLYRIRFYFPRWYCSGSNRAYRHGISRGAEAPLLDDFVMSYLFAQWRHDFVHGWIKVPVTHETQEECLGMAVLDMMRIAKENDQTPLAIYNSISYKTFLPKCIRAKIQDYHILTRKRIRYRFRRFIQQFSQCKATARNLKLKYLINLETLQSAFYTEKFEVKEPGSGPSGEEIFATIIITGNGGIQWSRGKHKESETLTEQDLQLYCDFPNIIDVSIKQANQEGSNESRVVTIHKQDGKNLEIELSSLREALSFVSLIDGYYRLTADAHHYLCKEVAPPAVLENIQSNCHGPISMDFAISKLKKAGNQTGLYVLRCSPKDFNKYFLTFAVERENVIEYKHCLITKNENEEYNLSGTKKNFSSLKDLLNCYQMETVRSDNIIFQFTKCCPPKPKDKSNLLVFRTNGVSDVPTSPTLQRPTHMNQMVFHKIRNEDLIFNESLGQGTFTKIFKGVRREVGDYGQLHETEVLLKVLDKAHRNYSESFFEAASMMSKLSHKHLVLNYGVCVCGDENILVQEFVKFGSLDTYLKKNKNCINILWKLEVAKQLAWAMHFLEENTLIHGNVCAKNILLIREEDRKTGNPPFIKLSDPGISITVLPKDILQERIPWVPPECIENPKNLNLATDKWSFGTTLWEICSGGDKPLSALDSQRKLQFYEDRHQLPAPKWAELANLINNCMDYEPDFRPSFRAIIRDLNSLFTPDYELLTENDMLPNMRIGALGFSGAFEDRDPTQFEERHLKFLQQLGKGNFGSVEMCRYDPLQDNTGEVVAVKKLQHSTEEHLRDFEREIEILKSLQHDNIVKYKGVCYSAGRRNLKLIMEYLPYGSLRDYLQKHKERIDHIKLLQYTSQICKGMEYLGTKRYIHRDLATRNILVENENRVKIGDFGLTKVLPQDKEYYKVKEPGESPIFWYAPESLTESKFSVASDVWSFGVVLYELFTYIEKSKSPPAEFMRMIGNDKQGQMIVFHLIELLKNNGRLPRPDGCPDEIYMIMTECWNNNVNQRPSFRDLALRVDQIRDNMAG

| IC50 [1] [µM] | IC50 [2] [µM] | IC50 [3] [µM] | Papp [4] [×10⁻⁶ cm/s] | CLint scaled at 0.2 µM [6] [mL/min/kg] | SMILES | IC50 [5] [µM] | IC50 [7] [µM] |
| --- | --- | --- | --- | --- | --- | --- | --- |
| 0.041 | 0.0052 | 0.058 | – | – | NC(=O)c1ccc(N2CCC(Nc3c(C(N)=O)cnc4[nH]ccc34)CC2)nc1 | – | – |
| 0.018 | 0.0013 | 0.016 | 26 | 204 | N#Cc1ccc(N2CCC(Nc3c(C(N)=O)cnc4[nH]ccc34)CC2)nc1 | 0.027 | – |
| 0.2 | 0.046 | 0.11 | – | – | N#CCC(=O)N1CCC(Nc2c(C(N)=O)cnc3[nH]ccc23)CC1 | – | – |
| 0.049 | – | 0.05 | – | 262 | N#Cc1ccc(N2CCC(Nc3c(C(N)=O)cnc4[nH]ccc34)CC2)cc1 | – | – |
| 0.03 | 0.0051 | 0.047 | – | > 1000 | C[C@@H]1CCCC[C@@H]1Nc1c(C(N)=O)cnc2[nH]ccc12 | 0.086 | – |
| 0.1 | 0.0092 | 0.18 | – | – | NC(=O)c1cnc2[nH]ccc2c1NC1CCN(c2ccc(CO)cn2)CC1 | – | – |
| 0.041 | 0.0036 | 0.035 | < 0.2 | – | N#Cc1cnc(N2CCC(Nc3c(C(N)=O)cnc4[nH]ccc34)CC2)cn1 | 0.077 | > 100 |
| 0.64 | 0.13 | – | – | – | NC(=O)c1cnc2[nH]ccc2c1N[C@H]1CCCN(Cc2ccccc2)C1 | – | – |
| 0.014 | 0.00078 | 0.011 | – | – | C[C@H]1CN(c2ccc(C#N)cn2)CC[C@H]1Nc1c(C(N)=O)cnc2[nH]ccc12 (relative stereo) | – | – |
| 0.19 | 0.15 | – | – | – | CS(=O)(=O)N1CCC(Nc2c(C(N)=O)cnc3[nH]ccc23)CC1 | – | – |
| 0.64 | 0.34 | – | – | – | CC(=O)N1CCC(Nc2c(C(N)=O)cnc3[nH]ccc23)CC1 | – | – |
| 0.31 | 0.09 | 0.3 | – | – | CN1CCC(Nc2c(C(N)=O)cnc3[nH]ccc23)CC1 | – | – |
| 0.43 | 0.24 | – | – | – | NC(=O)c1cnc2[nH]ccc2c1N[C@@H]1CCCN(Cc2ccccc2)C1 | – | – |
| 0.046 | 0.025 | – | – | – | N#Cc1cccc(CN2CCC(Nc3c(C(N)=O)cnc4[nH]ccc34)CC2)c1 | – | – |
| 0.017 | 0.0017 | 0.027 | 5 | – | N#Cc1ccc(N2CC[C@H](Nc3c(C(N)=O)cnc4[nH]ccc34)[C@H](F)C2)nc1 | 0.044 | > 100 |
| 0.084 | – | – | – | – | NC(=O)c1cnc2[nH]ccc2c1NC1CCN(Cc2ccccc2)CC1 | – | – |
| 0.012 | 0.0012 | 0.022 | < 0.2 | – | N#Cc1ccc(N2CCC(Nc3c(C(N)=O)cnc4[nH]ccc34)CC2)nn1 | 0.14 | > 100 |
| 0.37 | 0.025 | – | – | – | NC(=O)c1cnc2[nH]ccc2c1NC1CCN(c2ccc(C(F)(F)F)cn2)CC1 | – | – |

— ChEMBL document CHEMBL3593212, “Synthesis and evaluation of novel 1H-pyrrolo[2,3-b]pyridine-5-carboxamide derivatives as potent and orally efficacious immunomodulators targeting JAK3” (Bioorg Med Chem, 2015)
